Holding throughout (format): in vivo
Assay [1] has as its system Cercospora beticola. In words: Leaf Spot of Sugar Beets (CERCBE) disease control. Conditions: 100 ppm, 1 Day Protectant. The protocol: Technical grades of materials were dissolved in acetone, which were then mixed with nine volumes of water containing 110 ppm Triton X-100. The fungicide solutions were applied onto wheat seedlings using an automated booth sprayer to run-off. All sprayed plants were allowed to air dry prior to further handling. All fungicides were evaluated using the aforementioned method for their activity vs. all target diseases, unless stated otherwise. Wheat leaf blotch and brown rust activity were also evaluated using track spray applications, in which case the fungicides were formulated as EC formulations, containing 0.1% Trycol 5941 in the spray solutions. Wheat plants (variety Yuma) were grown from seed in a greenhouse in 50% mineral soil/50% soil-less Metro mix until the first leaf was fully emerged, with 7-10 seedlings per pot. These plants were inoculated with an aqueous spore suspension of Septoria tritici either prior to or after fungicide treatments. After inoculation the plants were kept in 100% relative humidity (one day in a dark dew chamber followed by two to three days in a lighted dew chamber at 20° C.) to permit spores to germinate and infect the leaf. The plants were then transferred to a greenhouse set at 20° C. for disease to develop. When disease symptoms were fully expressed on the 1st leaves of untreated plants, infection levels were assessed on a scale of 0 to 100 percent disease severity. Percent disease control was calculated using the ratio of disease severity on treated plants relative to untreated plants. Example G: Evaluation of Fungicidal Activity: Leaf Spot of Sugar Beets (Cercospora Beticola; Bayer Code CERCBE) Sugar beet plants (variety HH88) were grown in soil-less Metro mix and trimmed regularly to maintain a uniform plant size prior to test. Plants were inoculated with a spore suspension 24 hr after fungicide treatments. Inoculated plants were kept in a dew chamber at 22° C. for 48 hr then incubated in a greenhouse set at 24° C. under a clear plastic hood with bottom ventilation until disease symptoms were fully expressed. […]

The subject of assay [2] is Zymoseptoria tritici. In words: Leaf Blotch of Wheat (SEPTTR) disease control on wheat seedlings. The conditions noted are these: for pest or weed control at 121.5 g/ha: Low Volume (121.5 g/H); for pest or weed control at 100 µg/mL: High Volume (100 ppm). The procedure, abridged: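 Compounds in acetone/water (1:9, 110 ppm Triton X-100) sprayed to run-off on Yuma wheat seedlings at first-leaf stage, with Septoria tritici spores inoculated before or after treatment. Plants held at 100% RH (dark then lighted dew chamber, 20° C), then in greenhouse at 20° C; % control from disease severity on 1st leaves versus untreated.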

Assay [3] has as its system Leptosphaeria nodorum. In words: Wheat Glume Blotch (LEPTNO) disease control. The conditions noted are these: 100 ppm, 1 Day Protectant. The protocol: Technical grades of materials were dissolved in acetone, which were then mixed with nine volumes of water containing 110 ppm Triton X-100. The fungicide solutions were applied onto wheat seedlings using an automated booth sprayer to run-off. All sprayed plants were allowed to air dry prior to further handling. All fungicides were evaluated using the aforementioned method for their activity vs. all target diseases, unless stated otherwise. Wheat leaf blotch and brown rust activity were also evaluated using track spray applications, in which case the fungicides were formulated as EC formulations, containing 0.1% Trycol 5941 in the spray solutions. Wheat plants (variety Yuma) were grown from seed in a greenhouse in 50% mineral soil/50% soil-less Metro mix until the first leaf was fully emerged, with 7-10 seedlings per pot. These plants were inoculated with an aqueous spore suspension of Septoria tritici either prior to or after fungicide treatments. After inoculation the plants were kept in 100% relative humidity (one day in a dark dew chamber followed by two to three days in a lighted dew chamber at 20° C.) to permit spores to germinate and infect the leaf. The plants were then transferred to a greenhouse set at 20° C. for disease to develop. When disease symptoms were fully expressed on the 1st leaves of untreated plants, infection levels were assessed on a scale of 0 to 100 percent disease severity. Percent disease control was calculated using the ratio of disease severity on treated plants relative to untreated plants. Example C: Evaluation of Fungicidal Activity: Wheat Glume Blotch (Leptosphaeria nodorum; Bayer code […]) Wheat plants (variety Yuma) were grown from seed in a greenhouse in 50% mineral soil/50% soil-less Metro mix until the first leaf was fully emerged, with 7-10 seedlings per pot. These plants were inoculated with an aqueous spore suspension of Leptosphaeria nodorum 24 hr after fungicide treatments. […]

[4] abbreviates: 24 h, 1 Day Protectant, read-out: SEPTTR disease control, 1 DP.
Where [5] appears, read: 72 h, 3 Day Curative, read-out: SEPTTR disease control, 3 DC.

Molecules are shown by their SMILES. Like-named read-outs stand apart in the source and are kept apart here. Some results are limits rather than exact numbers.

Regarding `CCCC[C@H]1OCC[C@H](NC(=O)c2nccc(OC)c2OC(C)=O)C(=O)O[C@@H](C)[C@@H]1Cc1ccccc1` [Compound 2], the “CERCBE disease control, 1DP” value in assay [1] was “A (>70)”. The pest or weed control at 121.5 g/ha in assay [2] (setting [4]) and in assay [2] (setting [5]) was above 70% throughout. Moreover, in assay [3], the “LEPTNO disease control, 1DP” value is given as “A (>70)”.

Take `COc1ccnc(C(=O)N[C@H]2CCO[C@H](Cc3ccccc3)[C@@H](Cc3ccccc3)[C@H](C)OC2=O)c1OC(C)=O` [Compound 3]: in assay [1], the “CERCBE disease control, 1DP” value is recorded as “A (>70)”. In addition, the pest or weed control at 121.5 g/ha in assay [2] (setting [4]) and in assay [2] (setting [5]) was above 70% in each case. Moreover, the “LEPTNO disease control, 1DP” value in assay [3] is recorded as “A (>70)”.

In the case of `CCC[C@H]1OCC[C@H](NC(=O)c2nccc(OC)c2OCOC(C)=O)C(=O)O[C@@H](C)[C@@H]1Cc1ccccc1` [Compound 17], in assay [1], the “CERCBE disease control, 1DP” value is given as “A (>70)”. Also, in assay [2] (setting [4]), the pest or weed control at 100 µg/mL was above 70% and the pest or weed control at 121.5 g/ha is above 70%. Besides, in assay [2] (setting [5]), the pest or weed control at 100 µg/mL was above 70% and the pest or weed control at 121.5 g/ha is above 70%. Also, the “LEPTNO disease control, 1DP” value in assay [3] is recorded as “A (>70)”.
